According to patent US20040185566A1, “Polypeptides toxic to nematodes and methods of use” (priority 2003, published 2004):
Where two headings read alike, the source gives them in different places.

Columns and labels:
SMP #1 = SMP #1 (Serratia marcescens, UniProt P23694, N428Q/P266L); type: biochemical, S. marcescens NRRL B-23112
A. suum = assay: Assay for lytic activity against live A. suum; settings: A. suum
R. similis = assay: Assay for lytic activity against R. similis (microtiter plates); type: in vivo
Description: The assays were performed in microtiter plates. Ten microliters of R. similissuspensions were placed in microtiter plate wells. Serially diluted SMP #1 (100U in 0.1 ml stock) was added to the wells. PBS was added to a series of wells containing R. similis as a control. The nematodes were stored at 20° C. and examined for lytic effects or death at 48 and 96 hours.

SMP #1, sequence (P23694 17-487 P266L/N428Q): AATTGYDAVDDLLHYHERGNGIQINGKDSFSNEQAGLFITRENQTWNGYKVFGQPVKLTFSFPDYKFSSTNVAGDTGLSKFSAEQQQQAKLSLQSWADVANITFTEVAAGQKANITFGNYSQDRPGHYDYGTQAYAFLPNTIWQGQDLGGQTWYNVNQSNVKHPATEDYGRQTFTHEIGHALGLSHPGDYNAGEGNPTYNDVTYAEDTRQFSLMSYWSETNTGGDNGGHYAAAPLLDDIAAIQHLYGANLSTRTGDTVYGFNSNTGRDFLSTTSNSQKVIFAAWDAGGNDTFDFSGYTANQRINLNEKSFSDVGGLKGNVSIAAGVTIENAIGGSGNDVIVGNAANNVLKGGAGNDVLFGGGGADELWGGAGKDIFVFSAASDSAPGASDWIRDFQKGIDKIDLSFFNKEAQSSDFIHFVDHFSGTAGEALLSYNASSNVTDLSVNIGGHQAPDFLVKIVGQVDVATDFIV

aprotinin
inhibition of SMP #1 proteolytic activity (SMP #1; aprotinin 4 μg/ml): not inhibited

CC(C)C[C@H](NC(=O)[C@H]1O[C@@H]1C(=O)O)C(=O)NCCCCN=C(N)N [E-64]
inhibition of SMP #1 proteolytic activity (SMP #1; E-64 20 μg/ml): not inhibited

serratiopeptidase [SMP #2, reference compound]
lysis / mortality of the nematode on contact (A. suum): does not lyse or cause significant mortality | Dead (nematodes counted) (R. similis; 10 U/well, 10 wells, 20° C.): 109 | Live (nematodes counted) (R. similis; 10 U/well, 10 wells, 20° C.): 175 | % mortality (R. similis; 10 U/well, 10 wells, 20° C., significant difference (p < 0.05) between treatments): 38% | lysis / mortality of the nematode on contact (R. similis; R. similis): does not lyse or cause significant mortality

O=C(O)CN(CCN(CC(=O)O)CC(=O)O)CC(=O)O [EDTA]
inhibition of SMP #1 proteolytic activity (SMP #1; EDTA 9μg/ml): inhibited

Cl.NCCc1ccc(S(=O)(=O)F)cc1 [Pefabloc SC]
inhibition of SMP #1 proteolytic activity (SMP #1; Pefabloc SC 2000 μ/ml): not inhibited
